# Measured values from patent US4450269A, “Mono-5-substituted-3-chloro-4H-1,2,6-thiadiazin-4-one antifungal agents” (FMC Corporation, priority 1980, dated 1984).
# Tested on: Cladosporium cucumerinum
# Assay: Mycelial growth test
# Type: cell-based
# Conditions: CC; for inhibition at 5 ppm / inhibition at 10 ppm / inhibition at 40 ppm / inhibition at 20 ppm: Cladosporium cucumerinum, read-out: Percent Fungus Growth Inhibition; for inhibition at 5 ppm / inhibition at 10 ppm / inhibition at 40 ppm: 72 h; for inhibition at 20 ppm: CC20, 72 h; for Percent Fungus Growth Inhibition: 72 hours
# Description: |CC = Cladosporium cucumerinum
molecule,measurement,setting,value
"Cc1cc(Oc2nsnc(Cl)c2=O)cc(C)c1Br [Compound 60, 3-[(4-bromo-3,5-dimethyl)-phenoxy]-5-chloro-4H--1,2,6-thiadiazin-4-one]",inhibition at 5 ppm,5 ppm,33%
same,inhibition at 10 ppm,10 ppm,36%
same,inhibition at 40 ppm,40 ppm,47%
same,inhibition at 20 ppm,20 ppm,44%
"3-chloro-5-(bromophenoxy)-4H-1,2,6-thiadiazin-4-one [Compound 33]",Percent Fungus Growth Inhibition,5 ppm,11%
same,Percent Fungus Growth Inhibition,10 ppm,28%
same,Percent Fungus Growth Inhibition,20 ppm,61%
same,Percent Fungus Growth Inhibition,40 ppm,83%
"O=C(Nc1ccccc1)Oc1ccc(Oc2nsnc(Cl)c2=O)cc1 [Compound 37, 3-chloro-5-[4-(phenylaminocarbonyloxy)phenoxy]-4H-1,2,6,-thiadiazin-4-one]",inhibition at 5 ppm,5 ppm,23%
same,inhibition at 10 ppm,10 ppm,29%
same,inhibition at 40 ppm,40 ppm,52%
same,inhibition at 20 ppm,20 ppm,35%
"O=C(O)c1ccc(Oc2nsnc(Cl)c2=O)cc1 [Compound 50, 3-(4-carboxyphenoxy)-5-chloro-4H--1,2,6-thiadiazin-4-one]",inhibition at 5 ppm,5 ppm,58%
same,inhibition at 10 ppm,10 ppm,54%
same,inhibition at 40 ppm,40 ppm,100%
same,inhibition at 20 ppm,20 ppm,73%
"O=c1c(Cl)nsnc1Oc1ccc(F)cc1 [Compound 11, 3-chloro-5-(4-fluorophenoxy)-4H--1,2,6-thiadiazin-4-one]",inhibition at 5 ppm,5 ppm,27%
same,inhibition at 10 ppm,10 ppm,64%
same,inhibition at 40 ppm,40 ppm,100%
same,inhibition at 20 ppm,20 ppm,100%
"CC(=O)c1ccc(Oc2nsnc(Cl)c2=O)cc1 [Compound 47, 3-(4-acetylphenoxy)-5-chloro-4H--1,2,6-thiadiazin-4-one]",inhibition at 5 ppm,5 ppm,27%
same,inhibition at 10 ppm,10 ppm,38%
same,inhibition at 40 ppm,40 ppm,77%
same,inhibition at 20 ppm,20 ppm,46%
"CC(=O)c1cccc(Oc2nsnc(Cl)c2=O)c1 [Compound 48, 3-(3-acetylphenoxy)-5-chloro-4H--1,2,6-thiadiazin-4-one]",inhibition at 5 ppm,5 ppm,29%
same,inhibition at 10 ppm,10 ppm,33%
same,inhibition at 40 ppm,40 ppm,100%
same,inhibition at 20 ppm,20 ppm,50%
"O=c1c(Cl)nsnc1Oc1ccc([N+](=O)[O-])cc1 [Compound 9, 3-chloro-5-(4-nitrophenoxy)-4H--1,2,6-thiadiazin-4-one]",inhibition at 5 ppm,5 ppm,54%
same,inhibition at 10 ppm,10 ppm,75%
same,inhibition at 40 ppm,40 ppm,100%
same,inhibition at 20 ppm,20 ppm,92%
"3-chloro-5-[methylaminocarbonyloxy)phenoxyl]-4H-1,2,6-thiadiazin-4-one [Compound 36]",Percent Fungus Growth Inhibition,5 ppm,0%
same,Percent Fungus Growth Inhibition,10 ppm,8%
same,Percent Fungus Growth Inhibition,20 ppm,38%
same,Percent Fungus Growth Inhibition,40 ppm,62%
"O=c1c(Cl)nsnc1Oc1cccc(Cl)c1 [Compound 13, 3-chloro-5-(3-chlorophenoxy)-4H--1,2,6-thiadiazin-4-one]",inhibition at 5 ppm,5 ppm,58%
same,inhibition at 10 ppm,10 ppm,67%
same,inhibition at 40 ppm,40 ppm,100%
same,inhibition at 20 ppm,20 ppm,100%
"Cc1cc(Oc2nsnc(Cl)c2=O)cc(C)c1Cl [Compound 59, 3-chloro-5-[(4-chloro-3,5-dimethyl)phenoxy]-4H--1,2,6-thiadiazin-4-one]",inhibition at 5 ppm,5 ppm,28%
same,inhibition at 10 ppm,10 ppm,42%
same,inhibition at 40 ppm,40 ppm,61%
same,inhibition at 20 ppm,20 ppm,47%
"Cc1cc(Oc2nsnc(Cl)c2=O)ccc1Cl [Compound 54, 3-chloro-5-(4-chloro-3-methylphenoxy)-4H--1,2,6-thiadiazin-4-one]",inhibition at 5 ppm,5 ppm,14%
same,inhibition at 10 ppm,10 ppm,28%
same,inhibition at 40 ppm,40 ppm,50%
same,inhibition at 20 ppm,20 ppm,33%
"Cc1cc(Cl)ccc1Oc1nsnc(Cl)c1=O [Compound 55, 3-chloro-5-(4-chloro-2-methylphenoxy)-4H--1,2,6-thiadiazin-4-one]",inhibition at 5 ppm,5 ppm,0%
same,inhibition at 10 ppm,10 ppm,11%
same,inhibition at 40 ppm,40 ppm,28%
same,inhibition at 20 ppm,20 ppm,22%
"N#Cc1ccc(Oc2nsnc(Cl)c2=O)cc1 [Compound 10, 3-chloro-5-(4-cyanophenoxy)-4H--1,2,6-thiadiazin-4-one]",inhibition at 5 ppm,5 ppm,9%
same,inhibition at 10 ppm,10 ppm,45%
same,inhibition at 40 ppm,40 ppm,100%
same,inhibition at 20 ppm,20 ppm,100%
"O=c1c(Cl)nsnc1Oc1ccc(Cl)cc1Cl [Compound 17, 3-chloro-5-(2,4-dichlorophenoxy)-4H--1,2,6-thiadiazin-4-one]",inhibition at 5 ppm,5 ppm,100%
same,inhibition at 10 ppm,10 ppm,100%
same,inhibition at 40 ppm,40 ppm,100%
same,inhibition at 20 ppm,20 ppm,100%
"Cc1cc(Cl)c(Oc2nsnc(Cl)c2=O)cc1C [Compound 58, 3-chloro-5-[(2-chloro-4,5-dimethyl)phenoxy]-4H--1,2,6-thiadiazin-4-one]",inhibition at 5 ppm,5 ppm,44%
same,inhibition at 10 ppm,10 ppm,44%
same,inhibition at 40 ppm,40 ppm,61%
same,inhibition at 20 ppm,20 ppm,42%
"O=c1c(Cl)nsnc1Oc1cccc2ccccc12 [Compound 32, 3-chloro-5(1-naphthoxy)-4H-1,2,6-thiadiazin-4-one]",inhibition at 5 ppm,5 ppm,35%
same,inhibition at 10 ppm,10 ppm,46%
same,inhibition at 40 ppm,40 ppm,100%
same,inhibition at 20 ppm,20 ppm,69%
"CC(C)(C)c1ccc(Oc2nsnc(Cl)c2=O)cc1 [Compound 4, 3-chloro-5-(4-tert-butylphnoxy)-4H--1,2,6-thiadiazin-4-one]",inhibition at 5 ppm,5 ppm,0%
same,inhibition at 10 ppm,10 ppm,9%
same,inhibition at 40 ppm,40 ppm,45%
same,inhibition at 20 ppm,20 ppm,27%
"Cc1ccc(Cl)c(Oc2nsnc(Cl)c2=O)c1 [Compound 56, 3-chloro-5-[(2-chloro-5-methyl)phenoxy]-4H--1,2,6-thiadiazin-4-one]",inhibition at 5 ppm,5 ppm,26%
same,inhibition at 10 ppm,10 ppm,38%
same,inhibition at 40 ppm,40 ppm,100%
same,inhibition at 20 ppm,20 ppm,100%
"O=c1c(Cl)nsnc1Oc1ccc(Cl)c(Cl)c1 [Compound 16, 3-chloro-5-(3,4-dichlorophenoxy)-4H--1,2,6-thiadiazin-4-one]",inhibition at 5 ppm,5 ppm,58%
same,inhibition at 10 ppm,10 ppm,54%
same,inhibition at 40 ppm,40 ppm,75%
same,inhibition at 20 ppm,20 ppm,67%
"Nc1ccc(Oc2nsnc(Cl)c2=O)cc1 [Compound 26, 5-(4-aminophenoxy)-3-chloro-4H--1,2,6-thiadiazin-4-one]",Percent Fungus Growth Inhibition,40 ppm,77%
same,inhibition at 5 ppm,5 ppm,37%
same,inhibition at 10 ppm,10 ppm,49%
same,inhibition at 20 ppm,20 ppm,49%
"Cc1ccc(Oc2nsnc(Cl)c2=O)cc1 [Compound 3, 3-chloro-5-(4-methylphenoxy)-4H--1,2,6-thiadiazin-4-one]",inhibition at 5 ppm,5 ppm,58%
same,inhibition at 10 ppm,10 ppm,67%
same,inhibition at 40 ppm,40 ppm,100%
same,inhibition at 20 ppm,20 ppm,100%
"CC(=O)Nc1ccc(Oc2nsnc(Cl)c2=O)cc1 [Compound 8, 5-(4-acetylaminophenoxy)-3-chloro-4H--1,2,6-thiadiazin-4-one]",inhibition at 5 ppm,5 ppm,50%
same,inhibition at 10 ppm,10 ppm,58%
same,inhibition at 40 ppm,40 ppm,100%
same,inhibition at 20 ppm,20 ppm,67%
"Cc1ccc(Oc2nsnc(Cl)c2=O)c(Br)c1 [Compound 57, 3-[(2-bromo-4-methyl)-phenoxy]-5-chloro-4H--1,2,6-thiadiazin-4-one]",inhibition at 5 ppm,5 ppm,42%
same,inhibition at 10 ppm,10 ppm,56%
same,inhibition at 40 ppm,40 ppm,78%
same,inhibition at 20 ppm,20 ppm,78%
"O=c1c(Cl)nsnc1Oc1c(Cl)cccc1Cl [Compound 18, 3-chloro-5-(2,6-dichlorophenoxy)-4H--1,2,6-thiadiazin-4-one]",inhibition at 5 ppm,5 ppm,83%
same,inhibition at 10 ppm,10 ppm,100%
same,inhibition at 40 ppm,40 ppm,100%
same,inhibition at 20 ppm,20 ppm,100%
"O=c1c(Cl)nsnc1Oc1c(Cl)c(Cl)c(Cl)c(Cl)c1Cl [Compound 31, 3-chloro-5-(pentachlorophenoxy)-4H--1,2,6-thiadiazine-4-one]",inhibition at 5 ppm,5 ppm,54%
same,inhibition at 10 ppm,10 ppm,57%
same,inhibition at 40 ppm,40 ppm,69%
same,inhibition at 20 ppm,20 ppm,60%
"O=c1c(Cl)nsnc1Oc1ccc(Cl)cc1 [Compound 12, 3-chloro-5-(4-chlorophenoxy)-4H--1,2,6-thiadiazin-4-one]",inhibition at 5 ppm,5 ppm,63%
same,inhibition at 10 ppm,10 ppm,58%
same,inhibition at 40 ppm,40 ppm,100%
same,inhibition at 20 ppm,20 ppm,71%
"O=c1c(Cl)nsnc1Oc1cccc(Cl)c1Cl [Compound 19, 3-chloro-5-(2,3-dichlorophenoxy)-4H--1,2,6-thiadiazin-4-one]",inhibition at 5 ppm,5 ppm,100%
same,inhibition at 10 ppm,10 ppm,100%
same,inhibition at 40 ppm,40 ppm,100%
same,inhibition at 20 ppm,20 ppm,100%
"CSc1ccc(Oc2nsnc(Cl)c2=O)cc1 [Compound 39, 3-chloro-5-[(4-methylthio)phenoxy]-4H-1,2,6,-thiadiazin-4-one]",inhibition at 5 ppm,5 ppm,16%
same,inhibition at 10 ppm,10 ppm,16%
same,inhibition at 40 ppm,40 ppm,32%
same,inhibition at 20 ppm,20 ppm,23%
"O=c1c(Cl)nsnc1Oc1c(Cl)cc(Cl)cc1Cl [Compound 30, 3-chloro-5-(2,4,6-trichlorophenoxy)-4H--1,2,6-thiadiazin-4-one]",inhibition at 5 ppm,5 ppm,75%
same,inhibition at 10 ppm,10 ppm,100%
same,inhibition at 40 ppm,40 ppm,100%
same,inhibition at 20 ppm,20 ppm,100%
"CC(=O)Nc1ccccc1Oc1nsnc(Cl)c1=O [Compound 43, 3-[(2-acetylamino)-phenoxy]-5-chloro-4H--1,2,6-thiadiazin-4-one]",inhibition at 5 ppm,5 ppm,0%
same,inhibition at 10 ppm,10 ppm,0%
same,inhibition at 40 ppm,40 ppm,17%
same,inhibition at 20 ppm,20 ppm,6%
"CNC(=O)Nc1ccc(Oc2nsnc(Cl)c2=O)cc1 [Compound 28, 3-chloro-5-[4-(3-methylureido)-phenoxy]-4H--1,2,6-thiadiazin-4-one]",inhibition at 5 ppm,5 ppm,14%
same,inhibition at 10 ppm,10 ppm,26%
same,inhibition at 40 ppm,40 ppm,60%
same,inhibition at 20 ppm,20 ppm,26%
"CC(=O)c1ccccc1Oc1nsnc(Cl)c1=O [Compound 49, 3-(2-acetylphenoxy)-5-chloro-4H--1,2,6-thiadiazin-4-one]",inhibition at 5 ppm,5 ppm,3%
same,inhibition at 10 ppm,10 ppm,17%
same,inhibition at 40 ppm,40 ppm,64%
same,inhibition at 20 ppm,20 ppm,33%
"COc1ccc(Cl)c(Oc2nsnc(Cl)c2=O)c1 [Compound 51, 3-chloro-5-[(2-chloro-5-methoxy)phenoxy]-4H--1,2,6-thiadiazin-4-one]",inhibition at 5 ppm,5 ppm,8%
same,inhibition at 10 ppm,10 ppm,26%
same,inhibition at 40 ppm,40 ppm,100%
same,inhibition at 20 ppm,20 ppm,85%
"O=C(O)Cc1ccccc1Oc1nsnc(Cl)c1=O [Compound 45, 3-(2-carboxymethylphenoxy)-5-chloro-4H--1,2,6-thiadiazin-4-one]",inhibition at 5 ppm,5 ppm,0%
same,inhibition at 10 ppm,10 ppm,0%
same,inhibition at 40 ppm,40 ppm,0%
same,inhibition at 20 ppm,20 ppm,12%
"Cc1ccccc1Oc1nsnc(Cl)c1=O [Compound 22, 3-chloro-5-(2-methylphenoxy)-4H--1,2,6-thiadiazin-4-one]",inhibition at 5 ppm,5 ppm,31%
same,inhibition at 10 ppm,10 ppm,46%
same,inhibition at 40 ppm,40 ppm,92%
same,inhibition at 20 ppm,20 ppm,69%
"O=C(Nc1ccccc1)Nc1ccc(Oc2nsnc(Cl)c2=O)cc1 [Compound 29, 3-chloro-5-[4-(3-phenylureido)-phenoxy]-4H--1,2,6-thiadiazin-4-one]",inhibition at 5 ppm,5 ppm,14%
same,inhibition at 10 ppm,10 ppm,11%
same,inhibition at 40 ppm,40 ppm,31%
same,inhibition at 20 ppm,20 ppm,14%
"CCCCOc1ccc(Oc2nsnc(Cl)c2=O)cc1 [Compound 6, 3-chloro-5-(4-n-butoxyphenoxy)-4H--1,2,6-thiadiazin-4-one]",inhibition at 5 ppm,5 ppm,0%
same,inhibition at 10 ppm,10 ppm,0%
same,inhibition at 40 ppm,40 ppm,45%
same,inhibition at 20 ppm,20 ppm,0%
"Cc1ccc(Oc2nsnc(Cl)c2=O)c(C)c1 [Compound 23, 3-chloro-5-(2,4-dimethylphenoxy)-4H--1,2,6-thiadiazin-4-one]",inhibition at 5 ppm,5 ppm,27%
same,inhibition at 10 ppm,10 ppm,38%
same,inhibition at 40 ppm,40 ppm,100%
same,inhibition at 20 ppm,20 ppm,81%
